Assay results reported in patent US7138361B2, “Herbicidal heterocycles” (E. I. du Pont de Nemours and Company, priority 2000, dated 2006).

Tests used:
Type in all cases: in vivo
[1] = tested on: woolly cupgrass (Eriochloa villosa); test: Test C postemergence
Method in brief: (§1)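 Formulation: non-phytotoxic solvent mix incl. surfactant. Pre: applied right after planting. Post: 1–4-leaf seedlings. Read: visual 0–100, day 12–14, greenhouse.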

[2] = tested on: winter barley (Hordeum vulgare); test: Test C postemergence
Method in brief: as §1

[3] = tested on: chickweed (Stellaria media); test: Test C postemergence
Method in brief: as §1

[4] = tested on: Surinam grass (Brachiaria decumbens); test: Test C postemergence
Method in brief: as §1

[5] = tested on: windgrass (Apera spica-venti); test: Test C postemergence
Method in brief: as §1

[6] = tested on: green foxtail (Setaria viridis); test: Test C postemergence
Method in brief: as §1

[7] = tested on: canary grass (Phalaris minor); test: Test C postemergence
Method in brief: as §1

[8] = tested on: Italian ryegrass (Lolium multiflorum); test: Test C postemergence
Method in brief: as §1

[9] = tested on: wheat (Triticum aestivum); test: Test C postemergence
Method in brief: as §1

wild oat (Avena fatua) = test: Test C postemergence
Method in brief: as §1

[10] = tested on: redroot pigweed (Amaranthus retroflexus); test: Test A postemergence, sprayed to runoff; conditions: approx. eleven days
Method in brief: (§2)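 Visual injury rating on a 0–10 scale (10 = complete control) versus untreated controls after approximately eleven days in greenhouse. Compounds formulated in surfactant-containing non-phytotoxic solvent; preemergence by soil drench into sandy loam, postemergence by spray to runoff at one- to two-leaf stage.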

[11] = tested on: barnyardgrass (Echinochloa crus-galli); test: Test A postemergence, sprayed to runoff; conditions: approx. eleven days
Method in brief: as §2

[12] = tested on: giant foxtail (Setaria viridis); test: Test A postemergence, sprayed to runoff; conditions: approx. eleven days
Method in brief: as §2

[13] = tested on: crabgrass (Digitaria spp.); test: Test A postemergence, sprayed to runoff; conditions: approx. eleven days
Method in brief: as §2

[14] = tested on: morning glory (Ipomoea spp.); test: Test A postemergence, sprayed to runoff; design: scale not given here; conditions: Morningglory, approx. eleven days
Method in brief: as §2

[15] = tested on: velvetleaf (Abutilon theophrasti); test: Test A postemergence, sprayed to runoff; design: scale not given here; conditions: approx. eleven days
Method in brief: as §2

[16] = tested on: redroot pigweed (Amaranthus retroflexus); test: Test A preemergence, soil drench; conditions: approx. eleven days
Method in brief: as §2

[17] = tested on: barnyardgrass (Echinochloa crus-galli); test: Test A preemergence, soil drench; conditions: approx. eleven days
Method in brief: as §2

[18] = tested on: giant foxtail (Setaria viridis); test: Test A preemergence, soil drench; conditions: approx. eleven days
Method in brief: as §2

[19] = tested on: morning glory (Ipomoea spp.); test: Test A preemergence, soil drench; conditions: Morningglory, approx. eleven days
Method in brief: as §2

[20] = tested on: velvetleaf (Abutilon theophrasti); test: Test A preemergence, soil drench; conditions: approx. eleven days
Method in brief: as §2

[21] = tested on: crabgrass (Digitaria spp.); test: Test A preemergence, soil drench; conditions: approx. eleven days
Method in brief: as §2

[22] = Rate 125 g/ha, scale 0 to 100, 0 no effect, 100 complete control
[23] = Rate 250 g/ha, scale 0 to 100 (0 no effect, 100 complete control)
[24] = Rate 500 g/ha, scale 0 to 100 (0 no effect, 100 complete control)

CCC(CC)c1ccn(C2OCN(c3cccc(OC(F)(F)F)c3)C2=O)n1 (stereo not drawn) [Compound 68]
Plant response rating, Cupgrass, Woolly ([1]; Rate 62 g/ha, scale 0 to 100): 0 | Plant response rating, Cupgrass, Woolly [1, 22]: 0 | Plant response rating, Cupgrass, Woolly [1, 23]: 0 | Plant response rating, Cupgrass, Woolly [1, 24]: 30 | Plant response rating, Barley, Winter [2, 23]: 0 | Plant response rating, Chickweed ([3]; Rate 62 g/ha, scale 0 to 100): 30 | Plant response rating, Chickweed [3, 22]: 40 | Plant response rating, Chickweed [3, 23]: 70 | Plant response rating, Chickweed [3, 24]: 80 | Plant response rating, Surinam grass ([4]; Rate 62 g/ha, scale 0 to 100): 0 | Plant response rating, Surinam grass [4, 22]: 0 | Plant response rating, Surinam grass [4, 23]: 0 | Plant response rating, Surinam grass [4, 24]: 0

CC1(c2ccn(C3OCN(c4cccc(OC(F)(F)F)c4)C3=O)n2)CC1 (stereo not drawn) [Compound 69]
Plant response rating, Windgrass ([5]; Rate 62 g/ha, scale 0 to 100): 0 | Plant response rating, Windgrass [5, 22]: 0 | Plant response rating, Windgrass [5, 23]: 0 | Plant response rating, Windgrass [5, 24]: 20 | Plant response rating, Barley, Winter ([2]; Rate 62 g/ha, scale 0 to 100): 0 | Plant response rating, Barley, Winter [2, 22]: 0 | Plant response rating, Barley, Winter [2, 24]: 10 | Plant response rating, Foxtail, Green ([6]; Rate 62 g/ha, scale 0 to 100): 0 | Plant response rating, Foxtail, Green [6, 22]: 30 | Plant response rating, Foxtail, Green [6, 23]: 30 | Plant response rating, Foxtail, Green [6, 24]: 60 | Plant response rating, Canarygrass ([7]; Rate 62 g/ha, scale 0 to 100): 0 | Plant response rating, Canarygrass [7, 22]: 0 | Plant response rating, Canarygrass [7, 23]: 0 | Plant response rating, Canarygrass [7, 24]: 0 | Plant response rating, Ryegrass ([8]; Rate 62 g/ha, scale 0 to 100): 0 | Plant response rating, Ryegrass [8, 22]: 0 | Plant response rating, Ryegrass [8, 23]: 0 | Plant response rating, Ryegrass [8, 24]: 30 | Plant response rating, Wheat ([9]; Rate 62 g/ha, scale 0 to 100): 0 | Plant response rating, Wheat [9, 22]: 0 | Plant response rating, Wheat [9, 23]: 0 | Plant response rating, Wheat [9, 24]: 0 | Plant response rating, Wild Oat (wild oat (Avena fatua); Rate 62 g/ha, scale 0 to 100): 0 | Plant response rating, Wild Oat (wild oat (Avena fatua); [22]): 0 | Plant response rating, Wild Oat (wild oat (Avena fatua); [23]): 0 | Plant response rating, Wild Oat (wild oat (Avena fatua); [24]): 20

Cc1ccc(N2CCC(n3ccc(C(C)(C)C)n3)C2=O)cc1OCCCl (stereo not drawn) [Compound 109]
Plant response rating, Cupgrass, Woolly ([1]; Rate 31 g/ha, scale 0 to 100): 0 | Plant response rating, Cupgrass, Woolly ([1]; Rate 62 g/ha, scale 0 to 100): 0 | Plant response rating, Cupgrass, Woolly [1, 23]: 0 | Plant response rating, Barley, Winter [2, 23]: 0 | Plant response rating, Surinam grass ([4]; Rate 31 g/ha, scale 0 to 100): 0 | Plant response rating, Surinam grass ([4]; Rate 62 g/ha, scale 0 to 100): 0 | Plant response rating, Surinam grass [4, 22]: 0 | Plant response rating, Surinam grass [4, 23]: 0

CC(C)(C)c1ccn(C2CCN(c3cccc(C(F)(F)F)c3)C2=O)n1 (stereo not drawn) [Example 3, 3-[3-(1,1-dimethylethyl)-1H-pyrazol-1-yl]-1-[3-(trifluoromethyl)phenyl]-2-pyrrolidinone]
Plant response rating (visual injury vs untreated controls) ([10]; Rate 250 g/ha): 60 | Plant response rating (visual injury vs untreated controls) ([10]; Rate 1000 g/ha): 10 | Plant response rating (visual injury vs untreated controls) ([11]; Rate 250 g/ha): 20 | Plant response rating (visual injury vs untreated controls) ([11]; Rate 1000 g/ha): 10 | Plant response rating (visual injury vs untreated controls) ([12]; Rate 250 g/ha): 0 | Plant response rating (visual injury vs untreated controls) ([12]; Rate 1000 g/ha): 10 | Plant response rating (visual injury vs untreated controls) ([13]; Rate 250 g/ha): 0 | Plant response rating (visual injury vs untreated controls) ([13]; Rate 1000 g/ha): 0 | Plant response rating (visual injury vs untreated controls) ([14]; Rate 250 g/ha): 10 | Plant response rating (visual injury vs untreated controls) ([14]; Rate 1000 g/ha): 10 | Plant response rating (visual injury vs untreated controls) ([15]; Rate 250 g/ha): 0 | Plant response rating (visual injury vs untreated controls) ([15]; Rate 1000 g/ha): 0 | Plant response rating (visual injury vs untreated controls) ([16]; Rate 250 g/ha): 100 | Plant response rating (visual injury vs untreated controls) ([16]; Rate 1000 g/ha): 100 | Plant response rating (visual injury vs untreated controls) ([17]; Rate 250 g/ha): 100 | Plant response rating (visual injury vs untreated controls) ([17]; Rate 1000 g/ha): 100 | Plant response rating (visual injury vs untreated controls) ([18]; Rate 250 g/ha): 100 | Plant response rating (visual injury vs untreated controls) ([18]; Rate 1000 g/ha): 100 | Plant response rating (visual injury vs untreated controls) ([19]; Rate 250 g/ha): 0 | Plant response rating (visual injury vs untreated controls) ([19]; Rate 1000 g/ha): 0 | Plant response rating (visual injury vs untreated controls) ([20]; Rate 250 g/ha): 0 | Plant response rating (visual injury vs untreated controls) ([20]; Rate 1000 g/ha): 0 | Plant response rating (visual injury vs untreated controls) ([21]; Rate 250 g/ha): 100 | Plant response rating (visual injury vs untreated controls) ([21]; Rate 1000 g/ha): 100

CC(C)(C)c1ccn(C2OCN(c3cccc(C(F)(F)F)c3)C2=O)n1 (stereo not drawn) [compound 9]
Plant response rating (visual injury vs untreated controls) ([10]; Rate 500 g/ha): 20 | Plant response rating (visual injury vs untreated controls) ([10]; Rate 2000 g/ha): 80 | Plant response rating (visual injury vs untreated controls) ([11]; Rate 500 g/ha): 80 | Plant response rating (visual injury vs untreated controls) ([11]; Rate 2000 g/ha): 90 | Plant response rating (visual injury vs untreated controls) ([12]; Rate 500 g/ha): 30 | Plant response rating (visual injury vs untreated controls) ([12]; Rate 2000 g/ha): 100 | Plant response rating (visual injury vs untreated controls) ([13]; Rate 500 g/ha): 20 | Plant response rating (visual injury vs untreated controls) ([13]; Rate 2000 g/ha): 10 | Plant response rating (visual injury vs untreated controls) ([14]; Rate 500 g/ha): 10 | Plant response rating (visual injury vs untreated controls) ([14]; Rate 2000 g/ha): 10 | Plant response rating (visual injury vs untreated controls) ([15]; Rate 500 g/ha): 0 | Plant response rating (visual injury vs untreated controls) ([15]; Rate 2000 g/ha): 40 | Plant response rating (visual injury vs untreated controls) ([16]; Rate 500 g/ha): 100 | Plant response rating (visual injury vs untreated controls) ([16]; Rate 2000 g/ha): 100 | Plant response rating (visual injury vs untreated controls) ([17]; Rate 500 g/ha): 100 | Plant response rating (visual injury vs untreated controls) ([17]; Rate 2000 g/ha): 100 | Plant response rating (visual injury vs untreated controls) ([18]; Rate 500 g/ha): 100 | Plant response rating (visual injury vs untreated controls) ([18]; Rate 2000 g/ha): 100 | Plant response rating (visual injury vs untreated controls) ([19]; Rate 500 g/ha): 0 | Plant response rating (visual injury vs untreated controls) ([19]; Rate 2000 g/ha): 0 | Plant response rating (visual injury vs untreated controls) ([20]; Rate 500 g/ha): 20 | Plant response rating (visual injury vs untreated controls) ([20]; Rate 2000 g/ha): 10 | Plant response rating (visual injury vs untreated controls) ([21]; Rate 500 g/ha): 90 | Plant response rating (visual injury vs untreated controls) ([21]; Rate 2000 g/ha): 100
